Source: PubChem BioAssay (NCI)
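Dose response: 5 concentrations. Exposure: 48 h. Format: 96-well plates. Endpoint: linear interpolation; highest concentration if not reached. TGI: concentration producing complete growth inhibition.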

What was measured:
Test in all cases: NCI-60 cell line screen, 48 h
[1] = tested on: 786-0 renal
[2] = tested on: DLD-1 colon
[3] = tested on: LOX IMVI melanoma
[4] = tested on: HL-60(TB) leukemia
[5] = tested on: HOP-62 NSCLC
[6] = tested on: SK-MEL-2 melanoma
[7] = tested on: OVCAR-5 ovarian
[8] = tested on: HOP-92 NSCLC
[9] = tested on: M19-MEL melanoma
[10] = tested on: KM12 colon
[11] = tested on: SF-539 CNS
[12] = tested on: SNB-19 CNS
[13] = tested on: SF-268 CNS
[14] = tested on: LXFL 529 NSCLC
[15] = tested on: UO-31 renal
[16] = tested on: MOLT-4 leukemia
[17] = tested on: KM20L2 colon
[18] = tested on: OVCAR-4 ovarian
[19] = tested on: RPMI-8226 leukemia
[20] = tested on: OVCAR-8 ovarian
[21] = tested on: UACC-62 melanoma
[22] = tested on: ACHN renal
[23] = tested on: SK-OV-3 ovarian
[24] = tested on: OVCAR-3 ovarian
[25] = tested on: DMS 114 small cell lung
[26] = tested on: IGROV1 ovarian
[27] = tested on: RXF 393 renal
[28] = tested on: EKVX NSCLC
[29] = tested on: NCI-H522 lung
[30] = tested on: NCI-H23 lung
[31] = tested on: NCI-H226 lung
[32] = tested on: NCI-H460 lung
[33] = tested on: SN12C renal
[34] = tested on: HT29 colon
[35] = tested on: SNB-75 CNS
[36] = tested on: TK-10 renal
[37] = tested on: CCRF-CEM leukemia
[38] = tested on: COLO 205 colon
[39] = tested on: HCT-15 colon
[40] = tested on: HCT-116 colon
[41] = tested on: A498 renal
[42] = tested on: K-562 leukemia
[43] = tested on: RXF-631 renal
[44] = tested on: SF-295 CNS
[45] = tested on: SNB-78 CNS
[46] = tested on: SK-MEL-5 melanoma
[47] = tested on: DMS 273 small cell lung
[48] = tested on: SW-620 colon
[49] = tested on: A549 NSCLC
[50] = tested on: U251 CNS
[51] = tested on: M14 melanoma
[52] = tested on: SK-MEL-28 melanoma
[53] = tested on: XF 498 CNS
[54] = tested on: CAKI-1 renal
[55] = tested on: SR leukemia
[56] = tested on: UACC-257 melanoma
[57] = tested on: MALME-3M melanoma

Compound COc1cc(Br)c(C2OCCCO2)cc1OCc1ccccc1 has a TGI [1] greater than 100 µM, a TGI [2] greater than 100 µM and a TGI [3] greater than 100 µM. The TGI [4] was greater than 100 µM, the TGI [5] was greater than 100 µM and the TGI [6] was greater than 100 µM. For the same compound, the TGI [7] was greater than 100 µM, the TGI [8] was 64.3 µM and the TGI [9] was greater than 100 µM. It also gave a TGI [10] greater than 100 µM, a TGI [11] greater than 100 µM and a TGI [12] greater than 100 µM. For the same compound, the TGI [13] was greater than 100 µM, the TGI [14] was greater than 100 µM and the TGI [15] was greater than 100 µM. It also gave a TGI [16] greater than 100 µM, a TGI [17] greater than 100 µM and a TGI [18] greater than 100 µM. It also gave a TGI [19] greater than 100 µM, a TGI [20] greater than 100 µM and a TGI [21] greater than 100 µM. The TGI [22] was greater than 100 µM, the TGI [23] was greater than 100 µM and the TGI [24] was greater than 100 µM. It also gave a TGI [25] greater than 100 µM, a TGI [26] greater than 100 µM and a TGI [27] greater than 100 µM. For the same compound, the TGI [28] was greater than 100 µM, the TGI [29] was greater than 100 µM and the TGI [30] was greater than 100 µM. It also gave a TGI [31] greater than 100 µM, a TGI [32] greater than 100 µM and a TGI [33] greater than 100 µM. For the same compound, the TGI [34] was greater than 100 µM, the TGI [35] was greater than 100 µM and the TGI [36] was greater than 100 µM. For the same compound, the TGI [37] was greater than 100 µM, the TGI [38] was greater than 100 µM and the TGI [39] was greater than 100 µM. The TGI [40] was greater than 100 µM, the TGI [41] was greater than 100 µM and the TGI [42] was greater than 100 µM. It also gave a TGI [43] greater than 100 µM, a TGI [44] greater than 100 µM and a TGI [45] greater than 100 µM. For the same compound, the TGI [46] was greater than 100 µM, the TGI [47] was greater than 100 µM and the TGI [48] was greater than 100 µM. It also gave a TGI [49] greater than 100 µM, a TGI [50] greater than 100 µM and a TGI [51] greater than 100 µM. The TGI [52] was greater than 100 µM.

Compound N#Cc1cccc(C2SCc3nc4ccccc4n32)c1 (configuration not stated) has a TGI [1] greater than 100 µM, a TGI [2] greater than 100 µM and a TGI [53] greater than 100 µM. For the same compound, the TGI [3] was greater than 100 µM, the TGI [4] was greater than 100 µM and the TGI [5] was greater than 100 µM. It also gave a TGI [6] greater than 100 µM, a TGI [7] greater than 100 µM and a TGI [8] greater than 100 µM. For the same compound, the TGI [54] was greater than 100 µM, the TGI [10] was greater than 100 µM and the TGI [11] was greater than 100 µM. The TGI [12] was greater than 100 µM, the TGI [13] was greater than 100 µM and the TGI [14] was greater than 100 µM. For the same compound, the TGI [15] was greater than 100 µM, the TGI [16] was greater than 100 µM and the TGI [17] was greater than 100 µM. It also gave a TGI [18] greater than 100 µM, a TGI [20] greater than 100 µM and a TGI [21] greater than 100 µM. It also gave a TGI [22] greater than 100 µM, a TGI [23] greater than 100 µM and a TGI [25] greater than 100 µM. The TGI [26] was greater than 100 µM, the TGI [27] was greater than 100 µM and the TGI [28] was greater than 100 µM. For the same compound, the TGI [29] was greater than 100 µM, the TGI [30] was greater than 100 µM and the TGI [31] was 96.8 µM. The TGI [32] was greater than 100 µM, the TGI [33] was greater than 100 µM and the TGI [34] was greater than 100 µM. For the same compound, the TGI [55] was greater than 100 µM, the TGI [56] was greater than 100 µM and the TGI [36] was greater than 100 µM. It also gave a TGI [37] greater than 100 µM, a TGI [38] greater than 100 µM and a TGI [41] greater than 100 µM. The TGI [42] was greater than 100 µM, the TGI [43] was greater than 100 µM and the TGI [44] was greater than 100 µM. For the same compound, the TGI [57] was greater than 100 µM, the TGI [45] was greater than 100 µM and the TGI [46] was 65.2 µM. For the same compound, the TGI [47] was greater than 100 µM, the TGI [48] was greater than 100 µM and the TGI [49] was greater than 100 µM. It also gave a TGI [50] greater than 100 µM and a TGI [52] greater than 100 µM.
